Read-outs that look alike come from different tables or passages of the source.
Key:
[1] = tested on: SF295 (central nervous system tumor); assay: NCI method SRB growth inhibition, SF295; format: cell-based; conditions: Homo sapiens, SF-295; SF295, treated 48 hours, SRB stain
From the text: (§1) In this embodiment, the method of National Cancer Institute (NCI) was used to evaluate the anti-tumor activity of the embodiment compounds in the present disclosure. Nine representative cell lines were selected for activity evaluation, including A549 (non-small cell lung cancer), HCT116 (colon cancer), SF295 (central nervous system tumor), LOX-IMVI (melanoma), 786-0 (renal cancer), K562 (leukemia), PC-3 (prostate cancer), OVCAR-3 (ovarian cancer) and HS 578T (breast cancer).
(§2) The specific method was as follows: 60 tumor cell lines of 9 kinds of human cancers were used to evaluate the inhibitory activity of the compound in vitro. A test group, a parallel control group and a vehicle control group were set up. The parallel control group was fixed immediately before the compound was added; the cells in the test group were fixed after being treated with the compound for 48 hours; the vehicle control group was fixed after an equal volume of complete medium was added for 48 hours. Sulforhodamine B (SRB) was used to stain, and the OD value was measured at a wavelength of 515 nm. The specific calculation method was as follows: the OD value of the parallel control group was recorded as Tz, the OD value of the vehicle control group was recorded as C, and the OD value of the test group was recorded as (Ti). If Ti≥Tz, it means that the cells still grow after the drug was added, and the growth rate %=[(Ti−Tz)/(C−Tz)]×100; if Ti<Tz, it means that the cells are killed after the drug was added, and the growth rate %=[(Ti−Tz)/Tz]×100. Three parameters were used to evaluate the anti-tumor activity of compounds in this method: 50% growth inhibitory concentration (GI50): i.e. the compound concentration at [(Ti−Tz)/(C−Tz)]×100=50; complete growth inhibitory concentration (TGI): the compound concentration at Ti=Tz; the drug concentration required to kill 50% of the cells (LC50): i.e. the compound concentration at [(Ti−Tz)/Tz]×100=−50.
(§3) The inhibitory activities of the embodiment compounds on nine representative tumor cell lines were listed in detail in Table 1. Wherein, the GI50 value means “50% growth inhibition rate”, that is, the concentration of the compound to be tested when it can inhibit […] of cell growth; “ND” means not detected.

[2] = tested on: A549 (non-small cell lung cancer); assay: NCI method SRB growth inhibition, A549; format: cell-based; conditions: Homo sapiens; A549, treated 48 hours, SRB stain
From the text: as §1, §2, §3

K562 (leukemia) = assay: NCI method SRB growth inhibition, K562; format: cell-based; conditions: Homo sapiens; K562, treated 48 hours, SRB stain
From the text: as §1, §2, §3

HCT116 (colon cancer) = assay: NCI method SRB growth inhibition, HCT116; format: cell-based; conditions: Homo sapiens, HCT-116; HCT116, treated 48 hours, SRB stain
From the text: as §1, §2, §3

PC-3 (prostate cancer) = assay: NCI method SRB growth inhibition, PC-3; format: cell-based; conditions: Homo sapiens; PC-3, treated 48 hours, SRB stain
From the text: as §1, §2, §3

[3] = Liver microsomes stability; format: in vitro ADME, human; conditions: 1 μM compound, 1 mg/mL human liver microsomes, 1 mM NADPH; for half-life at 1 μM: read-out: T½ of HLM
Method: The compound to be tested with final concentration of 1 μM was incubated with 1 mg/mL of human liver microsomes and 1 mM of NADPH, and a group without NADPH was set as a negative control. The reaction mixture was quenched with methanol at five time points of 0, 5, 15, 30 and 60 min, respectively, then centrifuged at 2500 rpm for 20 min to precipitate proteins, and the resulting supernatant was analyzed by LC-MS/MS. The data was analyzed and the k value and half-life T1/2 was calculated, T1/2(min)=0.693/k.
Wherein, compounds a, b and c are active compounds disclosed in patent No. ZL201610154581.3.

HS 578T (breast cancer) = assay: NCI method SRB growth inhibition, HS 578T; format: cell-based; conditions: Homo sapiens, HS578T, treated 48 hours, SRB stain
From the text: as §1, §2, §3

LOX-IMVI (melanoma) = assay: NCI method SRB growth inhibition, LOX-IMVI; format: cell-based; conditions: Homo sapiens, treated 48 hours, SRB stain
From the text: as §1, §2, §3

OVCAR-3 (ovarian cancer) = assay: NCI method SRB growth inhibition, OVCAR-3; format: cell-based; conditions: Homo sapiens; OVCAR-3, treated 48 hours, SRB stain
From the text: as §1, §2, §3

786-0 (renal cancer) = assay: NCI method SRB growth inhibition, 786-0; format: cell-based; conditions: Homo sapiens; 786-0, treated 48 hours, SRB stain
From the text: as §1, §2, §3

| SMILES | microsomal CLint at 1 μM [3] | half-life at 1 μM ([3]; human, human liver microsomes) | GI50 [1] | GI50 [2] | GI50 (K562 (leukemia)) | GI50 (HCT116 (colon cancer)) | GI50 (PC-3 (prostate cancer)) | GI50 (HS 578T (breast cancer)) | GI50 (LOX-IMVI (melanoma)) | GI50 (OVCAR-3 (ovarian cancer)) | GI50 (786-0 (renal cancer)) | half-life at 1 μM [3] | microsomal CLint at 1 μM ([3]; human, human liver microsomes) |
| --- | --- | --- | --- | --- | --- | --- | --- | --- | --- | --- | --- | --- | --- |
| [2H]C([2H])([2H])Oc1cc(C(=O)Nc2cc3c(cc2Oc2cc(C)cc(C)c2)C(=O)N(C)[C@@H](CC(=O)N2CCC(F)(F)CC2)C(=O)N3)c(Cl)c(OC([2H])([2H])[2H])c1OC([2H])([2H])[2H] [Compound 17, (S)-2-chloro-N-[3-[2-(4,4-difluoropiperidin-1-yl)-2-oxoethyl]-7-(3,5-dimethylphenoxy)-4-methyl-2,5-dioxo-2,3,4,5-tetrahydro-1H-benzo[e][1,4]diazepin-8-yl]-3,4,5-tris(trideuteromethoxy)benzamide] | 34.5 µL/min/mg | 0.335 h | 8 nM | 15.8 nM | < 5 nM | 44.9 nM | < 5 nM | 5.6 nM | < 5 nM | 8.4 nM | 10 nM | – | – |
| [2H]C([2H])([2H])N1C(=O)c2cc(Oc3cc(C)cc(C)c3)c(NC(=O)c3cc(OC)c(OC)c(OC)c3Cl)cc2NC(=O)[C@@H]1CC(=O)N(C([2H])([2H])C([2H])([2H])[2H])C([2H])([2H])C([2H])([2H])[2H] [Compound 19, (S)-2-chloro-N-[3-[2-[bis(pentadeuteroethyl)amino]-2-oxoethyl]-7-(3,5-dimethylphenoxy)-4-(trideuteromethyl)-2,5-dioxo-2,3,4,5-tetrahydro-1H-benzo[e][1,4]diazepin-8-yl]-3,4,5-trimethoxybenzamide] | 21.1 µL/min/mg | 0.548 h | 11.8 nM | 5.9 nM | < 5 nM | 5 nM | < 5 nM | 80.7 nM | < 5 nM | 6.2 nM | 19.7 nM | – | – |
| [2H]c1c(Oc2cc3c(cc2NC(=O)c2cc(OC)c(OC)c(OC)c2Cl)NC(=O)[C@H](CC(=O)N(CC)CC)NC3=O)c([2H])c(C([2H])([2H])[2H])c([2H])c1C([2H])([2H])[2H] [Compound 25, (S)-2-chloro-N-[3-[2-(diethylamino)-2-oxoethyl]-7-[3,5-bis(trideuteromethyl)-2,4,6-trideuterophenoxy]-2,5-dioxo-2,3,4,5-tetrahydro-1H-benzo[e][1,4]diazepin-8-yl]-3,4,5-trimethoxybenzamide] | 29.8 µL/min/mg | 0.388 h | 14.2 nM | 19.1 nM | < 5 nM | < 5 nM | 5 nM | 30.3 nM | < 5 nM | 8.3 nM | 15.8 nM | – | – |
| [2H]C([2H])([2H])Oc1cc(C(=O)Nc2cc3c(cc2Oc2cc(C)cc(C)c2)C(=O)N[C@@H](CC(=O)C(C)(C)P(=O)(OC)OC)C(=O)N3)c(Br)c(OC([2H])([2H])[2H])c1OC([2H])([2H])[2H] [Compound 26, (S)-dimethyl-(4-8-(2-bromo-3,4,5-tris(trideuteromethoxy)benzoyl)-7-(3,5-dimethylphenoxy)-2,5-dioxo-2,3,4,5-tetrahydro-1H-benzo[e][1,4]diazepin-3-yl)-2-methyl-3-oxobutyl-2-yl)dimethyl phosphate] | – | – | 42.7 nM | 13 nM | < 5 nM | 14.2 nM | < 5 nM | 10 nM | 6.2 nM | 6 nM | 57.4 nM | 3.62 h | 3.2 µL/min/mg |
| [2H]C([2H])([2H])Oc1c(OC)cc(C(=O)Nc2cc3c(cc2Oc2cc(C)cc(C)c2)C(=O)N[C@@H](CC(=O)N(CC)CC)C(=O)N3)c(Cl)c1OC [Compound 2, (S)-2-chloro-N-[3-[2-(diethylamino)-2-oxoethyl]-7-(3,5-dimethylphenoxy)-2,5-dioxo-2,3,4,5-tetrahydro-1H-benzo[e][1,4]diazepin-8-yl]-3,5-dimethoxy-4-(trideuteromethoxy)benzamide] | 32 µL/min/mg | 0.362 h | 7.9 nM | 13.1 nM | < 5 nM | < 5 nM | 5.5 nM | 30.8 nM | < 5 nM | 6.1 nM | 11.8 nM | – | – |

More lines, main results first:

| microsomal CLint at 1 μM [3] | half-life at 1 μM ([3]; human, human liver microsomes) | SMILES | GI50 [1] | GI50 [2] | GI50 (K562 (leukemia)) | GI50 (HCT116 (colon cancer)) | GI50 (PC-3 (prostate cancer)) | GI50 (HS 578T (breast cancer)) | GI50 (LOX-IMVI (melanoma)) | GI50 (OVCAR-3 (ovarian cancer)) | GI50 (786-0 (renal cancer)) | half-life at 1 μM [3] | microsomal CLint at 1 μM ([3]; human, human liver microsomes) |
| --- | --- | --- | --- | --- | --- | --- | --- | --- | --- | --- | --- | --- | --- |
| 10.2 µL/min/mg | 1.13 h | [2H]C([2H])([2H])Oc1cc(C(=O)Nc2cc3c(cc2Oc2cc(C)cc(C)c2)C(=O)N[C@@H](CC(=O)N2CCC(F)(F)CC2)C(=O)N3)c(Cl)c(OC([2H])([2H])[2H])c1OC([2H])([2H])[2H] [Compound 10, (S)-2-chloro-N-[3-[2-(4,4-difluoropiperidin-1-yl)-2-oxoethyl]-7-(3,5-dimethylphenoxy)-2,5-dioxo-2,3,4,5-tetrahydro-1H-benzo[e][1,4]diazepin-8-yl]-3,4,5-tris(trideuteromethoxy)benzamide] | 10.7 nM | 35.4 nM | < 5 nM | 34.7 nM | < 5 nM | 6.4 nM | < 5 nM | < 5 nM | 37 nM | – | – |
| 7.2 µL/min/mg | 1.6 h | [2H]C([2H])([2H])Oc1cc(C(=O)Nc2cc3c(cc2Oc2cc(C)cc(C)c2)C(=O)N[C@@H](CC(=O)N(OC([2H])([2H])[2H])C([2H])([2H])[2H])C(=O)N3)c(Cl)c(OC([2H])([2H])[2H])c1OC([2H])([2H])[2H] [Compound 38] | 27 nM | < 5 nM | < 5 nM | 13 nM | < 5 nM | 21 nM | 5.2 nM | < 5 nM | 23 nM | – | – |
| 7.7 µL/min/mg | 1.5 h | [2H]C([2H])([2H])Oc1cc(C(=O)Nc2cc3c(cc2Oc2cc(C)cc(C)c2)C(=O)N[C@@H](CC(=O)N(OC([2H])([2H])[2H])C([2H])([2H])[2H])C(=O)N3)c(Br)c(OC([2H])([2H])[2H])c1OC([2H])([2H])[2H] [Compound 37] | 12 nM | < 5 nM | < 5 nM | < 5 nM | < 5 nM | < 5 nM | < 5 nM | < 5 nM | 8.6 nM | – | – |
| 7.6 µL/min/mg | 1.52 h | [2H]C([2H])([2H])Oc1cc(C(=O)Nc2cc3c(cc2Oc2cc(C)cc(C)c2)C(=O)N[C@@H](CC(=O)N(OC)C([2H])([2H])[2H])C(=O)N3)c(Br)c(OC([2H])([2H])[2H])c1OC([2H])([2H])[2H] [Compound 41] | < 5 nM | < 5 nM | < 5 nM | < 5 nM | < 5 nM | < 5 nM | < 5 nM | < 5 nM | < 5 nM | – | – |
